The values below come from PubChem BioAssay (NCI).

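These data come from cells grown in 96-well plates and exposed to compound for 48 hours at five concentrations. Abbreviation: GI50, concentration required for 50% inhibition of growth. TGI: concentration producing complete growth inhibition.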 Where a SMILES comes first, the peptide text is derived from it. [ ]: non-standard residue; d: D form. pGlu = O=C1CC[CH](C(=O)O)N1

The test has as its system MDA-MB-468 breast. Put plainly: growth of human tumour cells (NCI), 48 h.
`N#Cc1ccc(OCc2nc(N)nc(N)c2-c2ccc(Cl)c(Cl)c2)cc1`: the GI50 was 1530 nM and the TGI stood at 53900 nM.
As to `C=CCN=c1sc2c(n1NC(=O)c1cc3ccc1CCc1ccc(cc1)CC3)C(=O)c1ccccc1C2=O`, the GI50 is 2280 nM and the TGI worked out at 5720 nM.
The like results for `COc1ccc2sc(NC(=O)CCCCCCNC(=O)C(O)(O)C(F)(F)F)nc2c1` were, in that order, 665 nM and 1810 nM.
`Cc1cccc(/C=C/c2c(C(=O)/C=C/c3ccccc3)c(C)nc3ccccc23)c1`: the GI50 is 1900 nM and the TGI came out at 3790 nM.
For the molecule `O=c1[nH]nnc2c1ncn2C1OC(CO)C(O)C1O` (stereo not drawn), the GI50 was 3360 nM and the TGI was > 100000 nM.
For `CCCCCCCCNc1cc2c3c(c1)CCCN3CCC2`, the GI50 is 1540 nM and the TGI was determined as 5310 nM.
On the same counts, the results for `CCOC(=O)c1c(C)nc2c(c1N)CC(=O)N2Cc1ccc(OC)cc1` are 27300 nM and > 100000 nM.
For the molecule `IP(CCCSc1n(Cc2ccc3ccccc3c2)c(-c2ccccc2)c(-c2ccccc2)[n+]1Cc1ccc2ccccc2c1)(c1ccccc1)(c1ccccc1)c1ccccc1`, the GI50 is 2250 nM and the TGI is 5970 nM.
`ClCc1cccc2c(CCl)cccc12`: the GI50 is 1120 nM and the TGI worked out at 3050 nM.
As to `C/C=C(\C)C(=O)NC1=CC[C@@]2(C)C(=CCC3C2CC[C@@]2(C)C3CC[C@@H]2C(C)N(C)C)C1=O` (stereo partly drawn), the GI50 is 2000 nM and the TGI is 9560 nM.
In the case of `O=C(Nc1cccc(-c2nc(-c3ccc(NC(=O)c4cccnc4)cc3Cl)no2)c1)Nc1ccc(NC(=O)C2CC2)c(C(F)(F)F)c1`, the GI50 was 193 nM and the TGI turned out to be 691 nM.
Take `CCNC(=O)C1CCCN1C(=O)C(CCCN=C(N)N)NC(=O)C(CC(C)C)NC(=O)C(CC(C)C)NC(=O)C(Cc1ccc(O)cc1)NC(=O)C(CO)NC(=O)C(Cc1c[nH]c2ccccc12)NC(=O)C(Cc1cnc[nH]1)NC(=O)C1CCC(=O)N1` (stereo not drawn) ([pGlu]HWSYLLRP-NHEt; configuration not given here): the GI50 was > 100000 nM and the TGI is > 100000 nM.
With `COc1cccc(N2CCN(CC(=O)N3CCN(c4nnc(-c5ccc(Cl)cc5)c(-c5ccc(Cl)cc5)n4)CC3)CC2)c1`, the GI50 is 22500 nM and the TGI was > 100000 nM.
`O=C(CCCCCCNC(=O)c1cnc(N(c2ccccc2)c2ccccc2)nc1)NO`: the GI50 was 1220 nM and the TGI came out at 10200 nM.
Turning to `COc1ncnc2c(-c3ccccc3)cn(COCc3ccccc3)c12`, the GI50 was 1740 nM and the TGI turned out to be 6820 nM.
Regarding `O=C(Nc1cc(Cl)cc(Cl)c1)Nc1nc2ccc([N+](=O)[O-])cc2s1`, the GI50 is 1000 nM and the TGI worked out at 4220 nM.
On the same counts, the results for `O=C(Oc1cccc(F)c1OC(=O)c1cccc(O)c1)c1cccc(O)c1` are 18200 nM and 55200 nM.
The like results for `O=C(c1ccccc1)c1ccccc1-c1ccccc1` were, in that order, 768 nM and 3700 nM.
The like results for `CCN1C(=O)N(CC)C2C1NN=c1s/c(=C\c3cccc(F)c3)c(=O)n12` (stereo not drawn) were, in that order, 183 nM and > 100000 nM.
Regarding `CN(CCO)CC[C@H](CSc1ccccc1)Nc1ccc(S(=O)(=O)NC(=O)c2ccc(N3CCC([C@@H](O)c4ccccc4-c4ccc(Cl)cc4)CC3)cc2)cc1S(=O)(=O)C(F)(F)F`, the GI50 is 1870 nM and the TGI is 5190 nM.
Turning to `CCOC(=O)Nc1ccc2c(c1)/C(=N\NC(N)=S)c1ccccc1-2`, the GI50 is 3460 nM and the TGI is 25000 nM.
Turning to `CCN(Cc1ccc(Cl)cc1)c1ccc(CO)c(Cl)c1`, the GI50 was 20 nM and the TGI is 62.6 nM.
As to `Clc1nc(Cl)c2ncn(CC3(Cn4cnc5c(Cl)nc(Cl)nc54)COC3)c2n1`, the GI50 was 192 nM and the TGI turned out to be 408 nM.
Turning to `O=c1[nH]c(=O)c2cn[nH]c2[nH]1`, the GI50 was > 100000 nM and the TGI is > 100000 nM.
As to `CCN(Cc1cc(Nc2nc(C)cn3c(-c4cn[nH]c4)cnc23)sn1)C(C)(C)CO`, the GI50 is < 12.3 nM and the TGI came to 233 nM.
With `C[C@H](NC(=O)[C@@H](C)N)[C@H](Oc1ccc2c(cnn2-c2ccc(F)cc2)c1)c1ccc2c(c1)OCCO2`, the GI50 is 2120 nM and the TGI was 4050 nM.
Turning to `C=C1C(=O)O[C@H]2[C@H]1CC/C(CNC(=O)/C=C/c1cc(OC)c(OC)c(OC)c1)=C\CC[C@@]1(C)O[C@@H]21`, the GI50 is 220 nM and the TGI came out at 1060 nM.
As to `C=C1C(=O)O[C@H]2[C@H]1CC/C(COC(=O)CSCSCC(=O)OC/C1=C/CC[C@@]3(C)O[C@H]3[C@H]3OC(=O)C(=C)[C@@H]3CC1)=C\CC[C@@]1(C)O[C@@H]21`, the GI50 was 1070 nM and the TGI amounted to 2700 nM.
Turning to `COc1ccc(C(=S)N2CCN(c3cccc(C)c3)CC2)cc1OC`, the GI50 is 2650 nM and the TGI is > 100000 nM.
The like results for `COc1cc(/C=C\c2cc(OC)c(OC)c(OC)c2)cc(NC(=O)/C=C/c2cc(OC)c(OC)c(OC)c2)c1OC` were, in that order, 1990 nM and > 100000 nM.
For the molecule `Fc1ccc(C2CC(c3cccc(Nc4ccncc4)c3)=NN2c2ccc(Cl)cc2)cc1` (stereo not drawn), the GI50 is 1420 nM and the TGI stood at 2930 nM.
In the case of `C[C@]12CC[C@@H]3c4ccc(OC(=O)N(CCCl)CCCl)cc4CC[C@H]3[C@@H]1CC[C@@H]2O`, the GI50 was 1690 nM and the TGI was 4210 nM.
In the case of `COc1ccc(-c2nn(-c3cccc(Cl)c3)cc2-c2cc(-c3cccs3)[nH]c(=S)n2)cc1`, the GI50 was 2570 nM and the TGI came out at 9910 nM.
As to `Oc1c(-c2nnc(-c3ccccc3Cl)o2)sc2nnc(-c3ccccc3)c(-c3ccccc3)c12`, the GI50 was 5110 nM and the TGI was found to be 27800 nM.
